Experiments:
barnyardgrass [1] = experiment: Test A pre-/postemergence herbicide test; type: in vivo, Echinochloa crus-galli
How it was run: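 Both application timings used compounds in a non-phytotoxic solvent plus surfactant. Pre-emergence: soil sprayed directly after seeding into loam/sand. Post-emergence: foliage of 2–10 cm seedlings (1–2 leaves) sprayed. Injury rated ~10 days later, 0–100.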

galium = experiment: Test A postemergence herbicide test; type: in vivo, Galium aparine
How it was run: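 Visual injury rating, 0 (no effect) to 100 (complete control), versus untreated controls ~10 days after treatment. Postemergence spray applied at one- to two-leaf stage, plants 2–10 cm tall, potted in loam soil/sand. Greenhouse-held.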

barnyardgrass [2] = experiment: Test B flooded paddy test; type: in vivo, Echinochloa crus-galli; settings: 500 g ai/ha, Flood; scale of 0 to 100 where 0 is no effect and 100 is complete control
How it was run: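 First, plants reach the 2-leaf stage; next, pots are flooded to 3 cm and compound is delivered into the water; finally, after 13 to 15 greenhouse days at constant depth, injury is graded visually from 0 to 100 against controls.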

foxtail, giant = experiment: Test C pre-/postemergence herbicide test; type: in vivo, Setaria faberii; settings: Preemergence; for Plant response rating (scale of 0 to 100), Foxtail, Giant: 250 g ai/ha
How it was run: (§1)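 Herbicidal effect was judged by eye 13 to 15 days after treatment in the greenhouse, using a 0–100 scale against controls. Chemicals in a non-phytotoxic solvent with surfactant were sprayed onto planted loam/sand soil or onto plants 2 to 18 cm tall in a peat-based growing medium.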

soybean = experiment: Test C pre-/postemergence herbicide test; type: in vivo, Glycine max; settings: Preemergence; for Plant response rating (scale of 0 to 100), Soybean: 250 g ai/ha
How it was run: as §1

oilseed rape = experiment: Test C pre-/postemergence herbicide test; type: in vivo, Brassica napus; settings: Preemergence; for Plant response rating (scale of 0 to 100), Oilseed Rape: 250 g ai/ha
How it was run: as §1

waterhemp = experiment: Test C pre-/postemergence herbicide test; type: in vivo, Amaranthus rudis; settings: Preemergence; for Plant response rating (scale of 0 to 100), Waterhemp: 250 g ai/ha
How it was run: as §1

[3] = Postemergence, 125 g ai/ha, 0 to 100 scale, 0 is no effect, 100 is complete control
[4] = Postemergence, 500 g ai/ha, 0 to 100 scale (0 no effect, 100 complete control)
[5] = Preemergence, 125 g ai/ha, 0 to 100 scale where 0 is no effect and 100 is complete control
[6] = preemergence, 500 g ai/ha, 0 to 100 scale, 0 is no effect and 100 is complete control
[7] = 125 g ai/ha, 0 to 100 scale, 0 is no effect, 100 is complete control
[8] = 31 g ai/ha, scale 0 to 100, 0 is no effect and 100 is complete control
[9] = 62 g ai/ha, scale 0 to 100 (0 no effect, 100 complete control)
[10] = 125 g ai/ha, scale 0 to 100 (0 no effect, 100 complete control)

| SMILES | Plant response rating, Barnyardgrass (barnyardgrass [1]; [3]) | Plant response rating, Barnyardgrass (barnyardgrass [1]; [4]) | Plant response rating, Barnyardgrass (barnyardgrass [1]; [5]) | Plant response rating, Barnyardgrass (barnyardgrass [1]; [6]) | Plant response rating, Galium (galium; [7]) | Plant response rating, Barnyardgrass (barnyardgrass [2]) | Foxtail, Giant plant response rating (foxtail, giant; [8]) | Foxtail, Giant plant response rating (foxtail, giant; [9]) | Plant response rating, Foxtail, Giant (foxtail, giant; [10]) | Plant response rating (scale of 0 to 100), Foxtail, Giant (foxtail, giant) | Soybean plant response rating (soybean; [8]) | Soybean plant response rating (soybean; [9]) | Plant response rating, Soybean (soybean; [10]) | Plant response rating (scale of 0 to 100), Soybean (soybean) | Oilseed Rape plant response rating (oilseed rape; [8]) | Oilseed Rape plant response rating (oilseed rape; [9]) | Plant response rating, Oilseed Rape (oilseed rape; [10]) | Plant response rating (scale of 0 to 100), Oilseed Rape (oilseed rape) | Waterhemp plant response rating (waterhemp; [8]) | Waterhemp plant response rating (waterhemp; [9]) | other results |
| --- | --- | --- | --- | --- | --- | --- | --- | --- | --- | --- | --- | --- | --- | --- | --- | --- | --- | --- | --- | --- | --- |
| O=C1NCC(c2cc(F)cc(F)c2)C1C(=O)Nc1ccccc1Cl (racemic) [Compound 280] | 80 | 90 | 80 | 80 | 0 | 65 | 70 | 80 | 90 | 95 | 0 | 5 | 0 | 0 | 0 | 30 | 0 | 0 | 0 | 65 | Plant response rating, Galium (galium; 500 g ai/ha, 0 to 100 scale (0 no effect, 100 complete control)): 0; Plant response rating, Waterhemp (waterhemp; [10]): 75; Plant response rating (scale of 0 to 100), Waterhemp (waterhemp): 35 |
| O=C1NCC(c2ccc(OC(F)F)cc2)C1C(=O)Nc1cccc(F)c1F (racemic) [Compound 350] | – | 90 | 90 | – | – | 60 | – | 90 | – | 90 | – | 0 | – | – | – | 70 | – | 85 | – | 50 | Plant response rating, Barnyardgrass (barnyardgrass [1]; Postemergence, 125 g ai/ha, visual rating on 0 to 100 scale (0 no effect, 100 complete control), approx. 10 days): 70; Barnyardgrass plant response rating (barnyardgrass [1]; Preemergence, 500 g ai/ha, visual rating on 0 to 100 scale (0 no effect, 100 complete control)): 90; Plant response rating, Galium (galium; 125 g ai/ha, visual rating on 0 to 100 scale (0 no effect, 100 complete control), approx. 10 days): 60; Plant response rating, Foxtail, Giant (foxtail, giant; 125 g ai/ha, scale 0 to 100): 90; Plant response rating, Foxtail, Giant (foxtail, giant; 31 g ai/ha, scale 0 to 100): 85; Plant response rating, Soybean (soybean; 125 g ai/ha, scale 0 to 100): 0; Plant response rating, Soybean (soybean; 31 g ai/ha, scale 0 to 100): 0; Plant response rating, Oilseed Rape (oilseed rape; 125 g ai/ha, scale 0 to 100): 80; Plant response rating, Oilseed Rape (oilseed rape; 31 g ai/ha, scale 0 to 100): 5; Plant response rating, Waterhemp (waterhemp; 125 g ai/ha, scale 0 to 100): 90; Plant response rating, Waterhemp (waterhemp; 31 g ai/ha, scale 0 to 100): 0 |
| O=C1NCC(c2ccc(Cl)cc2)C1C(=O)Nc1cccc(F)c1F (stereo not drawn) [Compound 218] | 60 | – | – | 90 | 40 | 70 | 85 | 90 | 90 | 95 | 0 | 5 | 40 | 20 | 0 | 60 | 20 | 70 | 30 | 75 | Plant response rating, Barnyardgrass (barnyardgrass [1]; 125 g ai/ha, visual rating, 0 to 100 scale, 0 no effect, 100 complete control, approximately 10 days, preemergence): 80; Barnyardgrass plant response rating (0 to 100 scale, 0 is no effect, 100 is complete control) (barnyardgrass [1]; Postemergence, 500 g ai/ha): 90; Galium plant response rating (0 to 100 scale, 0 is no effect, 100 is complete control) (galium; 500 g ai/ha): 60; Plant response rating, Waterhemp (waterhemp; [10]): 90; Plant response rating (scale of 0 to 100), Waterhemp (waterhemp): 90 |

From patent publication US10294202B2, “Pyrrolidinones as herbicides” (FMC Corporation, priority 2013, dated 2019)
